In patent US6399542B1, “Alkoxyimino-substituted bicyclic compounds compositions containing the same and method of making such compounds” (Agro-Kanesho Co., Ltd., priority 1997, dated 2002):
Where two headings read alike, the source gives them in different places.

Experiments:
[1] = test system: Erysiphe graminis; assay: Effects on Barley powdery mildew (preventive spray test); type: in vivo; settings: lesions counted seven days after inoculation
[2] = test system: Puccinia recondita; assay: Effect on Wheat brown rust (preventive spray test); type: in vivo; settings: 7 days after inoculation
[3] = test system: Phytophthora infestans; type: in vivo; settings: Tomato late blight, 5 days after inoculation
[4] = test system: Psecidoperonospora cubensis; assay: Effect on Cucumber downy mildew (preventive spray test); type: in vivo; settings: 7 days after inoculation
[5] = test system: Pyricularia oryzae; type: in vivo; settings: Rice blast, 7 days after inoculation
[6] = test system: Chochliobolus miyabeanus; assay: Effect on Rice brown spot (preventive spray test); type: in vivo; settings: 7 days after inoculation
[7] = test system: Botrytis cinerea; assay: Effect on Cucumber gray mold (cotyledon paper disc test); type: in vivo; settings: 3 days after inoculation
[8] = test system: Puccinia recondite; assay: Penetration and translocation in wheat leaves (covered leaf tip, brown rust); type: in vivo; settings: conc. of active ingredient 200 ppm
[9] = test system: Pseudoperonospora cubenis; assay: Penetration and translocation in cucumber leaf (drop on back of leaf, downy mildew); type: in vivo; set-up: key: 3: At least 40% of the area of the leaf was free from the disease.; 20 to 40% of the area of the leaf was free from the disease.; 1: An area larger than the spot of the drop but smaller than 20% of the area of the leaf was free from the disease.; 0: Only the spot of the drop was free from the disease; settings: 10 μl drop on back of leaf, conc. of active ingredient 200 ppm, disease-free area 5 days after the spraying
Protocol: Four points were marked at random on the first leaf of each cucumber seedling (variety: Shogoin aonaga fushinari) in two-leaf stage in each pot having a diameter of 6 cm. […] The leaf was kept in a greenhouse for one day and then uniformly inoculated with a zoospore suspension of Pseudoperonospora cubenis by means of a spray gun, then left to stand in a high-humidity room at 24° C. for 24 hours, and kept in a greenhouse. The area of the disease-free part 5 days after the spraying was represented in terms of the index.
3: At least 40% of the area of the leaf was free from the disease.
2: 20 to 40% of the area of the leaf was free from the disease.
1: An area larger than the spot of the drop but smaller than 20% of the area of the leaf was free from the disease.
0: Only the spot of the drop was free from the disease.

[10] = test system: Aphis gossypii; assay: Effect on Aphis gossypii (cucumber seedling spray); settings: Test Example 15
Source text: 5 or 6 imagoes of Aphis gossypii were released on a cucumber seedling of 1- or 2-leaf stage in a pot. Two days after, the larvae were confirmed and the imagoes were removed. Then 500 ppm or 50 ppm of a compound of the present invention in the form of an emulsion diluted with water was sprayed on the cucumber seedling. After air-drying, the leaves were cut and put in a plastic vessel having a size of 9 cm (inner diameter)×6.5 cm (depth). The lid was put on the vessel, which was then left in a room kept at 26° C. for 48 hours and then the numbers of the living imagoes and dead ones were counted, and the rate of dead imagoes was calculated (repetition: twice).

[11] = test system: Rhizoctonia solani; assay: Effect on Rice sheath blight (preventive spray test); settings: 10 days after inoculation
Protocol: An emulsion of a compound of the present invention prepared in Preparation Example 2 was diluted with water and uniformly sprayed on 5 rice plant seedlings (variety: Koshihikari) in 4.5-leaf stage in each plastic pot having a diameter of 6 cm, with a spray gun. One day after the spraying, the seedlings were bundled at the second sheath with a string. Colonies of Rhizoctonia solani previously cultured in PSA culture medium were bored with a cork borer to obtain pieces having a diameter of 4 mm. The piece was put in the bundle, and kept in a high-humidity room at 25° C. until the examination. Ten days after the inoculation, the degree of the disease was examined, and the preventive rate (effect of inhibiting the disease) was calculated on the basis of the following standard:
Preventive rate=[1-D′/C′]×100
C′: Severity in untreated section
D′: Severity in treated section.

[12] = test system: Tetranychus kanzawai; assay: Effect on Tetranychus kanzawai (green bean leaf spray); settings: Test Example 11
Protocol: A piece (3 cm×5 cm) of green bean leaf was placed with the backside up, on a filter paper wet with water so as to prevent the leaf from drying, and inoculated with 10 female imagoes of Tetranychus kanzawai per a leaf. 24 hours after the inoculation, 500 ppm of a compound of the present invention in the form of an emulsion diluted with water was sprayed thereon. After air-drying, the piece was left to stand in a room kept at 26° C. for 24 hours and then the numbers of the living imagoes and dead ones were counted, and the rate of dead imagoes was calculated (repetition: twice).

[13] = test system: Spodoptera litura; assay: Effect on Spodoptera litura (chinese cabbage leaf spray); settings: Test Example 12
Protocol: 500 ppm of a compound of the present invention in the form of an emulsion diluted with water was sprayed on a leaf of chinese cabbage seedling in 3- to 4-leaf stage. After air-drying, the leaf was placed in a plastic vessel having a size of 21 cm(length)×13 cm(width)×3 cm (depth). Ten larvae of Spodoptera litura of the third instar were put therein. The lid was put on the vessel, which was then left in a room kept at 26° C. for 48 hours and then the numbers of the living imagoes and dead ones were counted, and the rate of dead imagoes was calculated (repetition: twice).

[14] = test system: Plutella xylostella; assay: Effect on Plutella xylostella (Chinese cabbage leaf spray); settings: Test Example 13
Protocol: 500 ppm or 50 ppm of a compound of the present invention in the form of an emulsion diluted with water was sprayed on a leaf of Chinese cabbage seedling in 3- to 4-leaf stage. After air-drying, the leaf was placed in a plastic vessel having a size of 9 cm (inner diameter)×6.5 cm (depth). Ten larvae of Plutella xylostella of the third instar were put therein. The lid was put on the vessel, which was then left in a room kept at 26° C. for 48 hours and then the numbers of the living imagoes and dead ones were counted, and the rate of dead imagoes was calculated (repetition: twice).

[15] = test system: Nephotettix cincticeps; assay: Effect on Nephotettix cincticeps (rice seedling immersion); settings: Test Example 14
Protocol: Rice plant seedlings were immersed in 500 ppm or 50 ppm of a compound of the present invention in the form of an emulsion diluted with water for 10 seconds. After air-drying, the root of each seedling was covered with a wet absorbent cotton and the seedling was put in a test tube. Ten larvae of Nephotettix cincticeps of the second instar were put therein. The opening of the test tube was covered with a gauze, and the test tube was then left in a room kept at 26° C. for 48 hours and then the numbers of the living imagoes and dead ones were counted, and the rate of dead imagoes was calculated (repetition: twice).

[16] = conc. of active ingredient 20 ppm
[17] = conc. of active ingredient 100 ppm

Compound	Preventive rate (%) [1, 16] [%]	Preventive rate (%) [1, 17] [%]	Preventive rate (%) [2, 16] [%]	Preventive rate (%) [2, 17] [%]	Preventive rate (%) [3, 16] [%]	Preventive rate (%) [3, 17] [%]	Preventive rate (%) [4, 16] [%]	Preventive rate (%) [4, 17] [%]	Preventive rate (%) [5, 16] [%]	Preventive rate (%) [5, 17] [%]	Preventive rate (%) [6, 16] [%]	Preventive rate (%) [6, 17] [%]	Preventive rate (%) [7, 16] [%]	Preventive rate (%) [7, 17] [%]	effect of controlling insect pests [10]	Preventive rate (%) [11, 16] [%]	Preventive rate (%) [11, 17] [%]	effect of controlling insect pests [12]	effect of controlling insect pests [13]	effect of controlling insect pests [14]	other results
CNC(=O)/C(=N/OC)c1ccccc1COc1ccc2c(c1)CCC2 [comparative compound (1), 2-methoxyimino-2-[2-(indane-5-yloxymethyl)-phenyl]-acetic acid methylamide, reference compound]	17	99	86	99	63	94	30	81	48	63	0	64	25	44	did not exhibit the effect of controlling insect pests	0	24	did not exhibit the effect of controlling insect pests	did not exhibit the effect of controlling insect pests	did not exhibit the effect of controlling insect pests	Number of lesions formed within the mark to the tip [8]: 48; Preventive rate (%) [8]: 23%; Rate of the translocation perfect preventive conc. (%) [8]: 4.4%; Index [9]: 0; effect of controlling insect pests [15]: did not exhibit the effect of controlling insect pests
CO/N=C(\C(=O)OC)c1ccccc1COc1ccc2c(c1)CCCC2 [comparative compound (2), 2-methoxyimino-2-[2-(5,6,7,8-tetrahydronaphthalene-2-yloxymethyl)phenyl]-methylacetate, reference compound]	59	100	70	100	38	100	70	93	49	55	20	85	11	21	did not exhibit the effect of controlling insect pests	0	0	did not exhibit the effect of controlling insect pests	did not exhibit the effect of controlling insect pests	did not exhibit the effect of controlling insect pests	effect of controlling insect pests [15]: did not exhibit the effect of controlling insect pests
